Data on 16 compounds can be found in patent US8476455B2, “1-N-phenyl-amino-1h-imidazole derivatives and pharmaceutical compositions containing them” (Laboratoire Theramex, priority 2003, dated 2013).

Take `N#Cc1ccc(N(Cc2ccc(O)c(Cl)c2)n2ccnc2)cc1` [Ex 12, 4-[N-(3-chloro-4-hydroxyphenylmethyl)-N-(1H-imidazol-1-yl)amino]benzonitrile]: the melting point – broadly, the temperature of the solid-liquid transition – was found to be 195 °C.

`N#Cc1ccc(N(Cc2c(F)c(F)c(O)c(F)c2F)n2ccnc2)cc1` [Ex 15, 4-[N-(2,3,5,6-tetrafluoro-4-hydroxyphenylmethyl)-N-(1H-imidazol-1-yl)amino]benzonitrile] showed a melting point of 243 °C. For `N#Cc1ccc(N(Cc2ccc(O)c(C=O)c2)n2ccnc2)cc1` [Ex 16, 4-[N-(3-formyl-4-hydroxyphenylmethyl)-N-(1H-imidazol-1-yl)amino]benzonitrile] the value was 160 °C; for `N#Cc1ccc(N(Cc2ccc(Cl)nc2)n2ccnc2)cc1` [Ex 18, 4-{N-[(6-chloropyridin-3-yl)methyl]-N-(1H-imidazol-1-yl)amino}benzonitrile], 156 °C.

As to `N#Cc1ccc(N(Cc2ccc(S(N)(=O)=O)cc2)n2ccnc2)cc1` [Ex 19, 4-{[N-(4-cyanophenyl)-N-(1H-imidazol-1-yl)amino]methyl}benzene sulfonamide], the melting point amounted to 150 °C. In turn, `COc1ccc(CN(c2ccc(C#N)cc2)n2ccnc2)cc1C(=O)O` [Ex 21, 5-{[N-(4-cyanophenyl)-N-(1H-imidazol-1-yl)amino]methyl}-2-methoxybenzoic acid] displayed a melting point of 187 °C.

In the case of `N#Cc1ccc(N(C(=O)c2ccc(Cl)nc2)n2ccnc2)cc1` [Ex 23, 6-chloro-N-(4-cyanophenyl)-N-(1H-imidazol-1-yl)nicotinamide], the melting point amounted to 132 °C. For `N#Cc1ccc(N(C(=O)Cc2ccc(F)cc2)n2ccnc2)cc1` [Ex 24, N-(1H-imidazol-1-yl)-N-(4-cyanophenyl)-2-(4-fluorophenyl)acetamide] the value was 131 °C; for `COc1ccc2c(CC(=O)N(c3ccc(C#N)cc3)n3ccnc3)csc2c1` [Ex 29, N-(4-cyanophenyl)-N-(1H-imidazol-1-yl)-2-(6-methoxy-benzothien-3-yl)acetamide], 104 °C; for `N#Cc1ccc(N(C(=O)Cc2csc3cc(O)ccc23)n2ccnc2)cc1` [Ex 34, N-(4-cyanophenyl)-N-(1H-imidazol-1-yl)-2-(6-hydroxy-benzothien-3-yl)acetamide], 179 °C. `N#Cc1ccc(N(Cc2cc3ccc(O)cc3s2)n2ccnc2)cc1` [Ex 39, 4-[N-[(6-hydroxy-benzothien-2-yl)methyl]-N-(1H-imidazol-1-yl)amino]benzonitrile] displayed a melting point of 230 °C. The same measure for `N#Cc1ccc(N(c2ccc(NS(N)(=O)=O)cc2)n2ccnc2)cc1` [Ex 49, N-{4-[N-(4-cyanophenyl)-N-(1H-imidazol-1-yl)amino]phenyl}sulfamide]: 121 °C.

With `N#Cc1ccc(N(Cc2ccc(OS(N)(=O)=O)cc2NS(N)(=O)=O)n2ccnc2)cc1` [Ex 54, Sulfamic acid 3-(aminosulfonyl)amino-4-{[N-(4-cyanophenyl)-N-(1H-imidazol-1yl)amino]methyl}phenyl ester], the melting point came out at 197 °C.

`N#Cc1ccc(N(C2=CS(=O)(=O)c3cc(OS(N)(=O)=O)ccc32)n2ccnc2)cc1` [Ex 56, Sulfamic acid 3-[N-(4-cyanophenyl)-N-(1H-imidazol-1yl)amino]-1,1-dioxido-benzothien-6-yl ester] came in with a melting point of 172 °C. In the case of `N#Cc1ccc(N(Cc2csc3cc(OS(N)(=O)=O)ccc23)n2ccnc2)cc1` [Ex 58, Sulfamic acid 3-{[N-(4-cyanophenyl)-N-(1H-imidazol-1yl)amino]methyl}-benzothien-6-yl ester], the melting point came out at 193 °C.

The compound `N#Cc1ccc(N(Cc2cc3ccc(OS(N)(=O)=O)cc3s2)n2ccnc2)cc1` [Ex 59, Sulfamic acid 2-{[N-(4-cyanophenyl)-N-(1H-imidazol-1yl)amino]methyl}-benzothien-6-yl ester] had a melting point of 178 °C.
